Measured values: ChEMBL document CHEMBL1201862, “PubChem BioAssay data set” (2004)
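Grown in 96-well plates, cells were treated for 48 hours with each compound at five concentrations. Insufficient inhibition: endpoint recorded as highest concentration tested. At the GI50, growth is halved.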 Activity calls are given as the source filed them. Cut-off read from the data, not from the text of the source: active = GI50 up to about 1.1 µM and inactive = higher.

How the values were obtained:
Assay in all cases: DTP human tumour cell line panel, 48 h
786-0 = tested on: 786-0
A498 = tested on: A498
A549 = tested on: A549
ACHN = tested on: ACHN
CAKI-1 = tested on: CAKI-1
COLO 205 = tested on: COLO 205
DLD-1 = tested on: DLD-1
DMS-114 = tested on: DMS-114
DMS-273 = tested on: DMS-273
EKVX = tested on: EKVX
HCT-116 = tested on: HCT-116
HCT-15 = tested on: HCT-15
HOP-18 = tested on: HOP-18
HOP-62 = tested on: HOP-62
HOP-92 = tested on: HOP-92
HT-29 = tested on: HT-29
IGROV-1 = tested on: IGROV-1
K562 = tested on: K562
KM-20L2 = tested on: KM-20L2
KM12 = tested on: KM12
LOX IMVI = tested on: LOX IMVI
M19-MEL = tested on: M19-MEL
Malme-3M = tested on: Malme-3M
NCI-H23 = tested on: NCI-H23
NCI-H460 = tested on: NCI-H460
OVCAR-3 = tested on: OVCAR-3
OVCAR-4 = tested on: OVCAR-4
OVCAR-5 = tested on: OVCAR-5
OVCAR-8 = tested on: OVCAR-8
RPMI-8226 = tested on: RPMI-8226
RXF 393 = tested on: RXF 393
SF-268 = tested on: SF-268
SF-295 = tested on: SF-295
SF-539 = tested on: SF-539
SK-MEL-28 = tested on: SK-MEL-28
SK-MEL-2 = tested on: SK-MEL-2
SK-MEL-5 = tested on: SK-MEL-5
SN12C = tested on: SN12C
SNB-19 = tested on: SNB-19
SNB-75 = tested on: SNB-75
SNB-78 = tested on: SNB-78
SR = tested on: SR
SW-620 = tested on: SW-620
TK-10 = tested on: TK-10
U-251 = tested on: U-251
UACC-257 = tested on: UACC-257
UACC-62 = tested on: UACC-62
CCRF-CEM = tested on: CCRF-CEM
HL-60 = tested on: HL-60
LXFL 529 = tested on: LXFL 529
MOLT-4 = tested on: MOLT-4
NCI-H226 = tested on: NCI-H226
NCI-H522 = tested on: NCI-H522
SK-OV-3 = tested on: SK-OV-3
UO-31 = tested on: UO-31
M14 = tested on: M14
HCC 2998 = tested on: HCC 2998

Measured: GI50

CC(C)c1cc(C(C)C)c(S(=O)(=O)NN)c(C(C)C)c1
> 100 µM: HCT-15
inactive: 786-0 > 100 µM | A498 > 100 µM | A549 > 100 µM | ACHN > 100 µM | CAKI-1 > 100 µM | COLO 205 > 100 µM | DLD-1 > 100 µM | DMS-114 > 100 µM | DMS-273 > 100 µM | EKVX > 100 µM | HCT-116 > 100 µM | HOP-18 > 100 µM | HOP-62 > 100 µM | HOP-92 > 100 µM | HT-29 > 100 µM | IGROV-1 > 100 µM | K562 > 100 µM | KM-20L2 > 100 µM | KM12 > 100 µM | LOX IMVI 42.1 µM | M19-MEL > 100 µM | Malme-3M > 100 µM | NCI-H23 > 100 µM | NCI-H460 > 100 µM | OVCAR-3 > 100 µM | OVCAR-4 > 100 µM | OVCAR-5 > 100 µM | OVCAR-8 > 100 µM | RPMI-8226 > 100 µM | RXF 393 > 100 µM | SF-268 > 100 µM | SF-295 > 100 µM | SF-539 > 100 µM | SK-MEL-28 > 100 µM | SK-MEL-2 > 100 µM | SK-MEL-5 > 100 µM | SN12C > 100 µM | SNB-19 > 100 µM | SNB-75 > 100 µM | SNB-78 > 100 µM | SR > 100 µM | SW-620 > 100 µM | TK-10 > 100 µM | U-251 > 100 µM | UACC-257 > 100 µM | UACC-62 > 100 µM

N#Cc1ccc(Sc2nc3ccccc3[nH]2)cc1
inactive: 786-0 > 100 µM | A549 78.2 µM | ACHN > 100 µM | CAKI-1 > 100 µM | CCRF-CEM > 100 µM | COLO 205 > 100 µM | DLD-1 > 100 µM | DMS-114 65 µM | DMS-273 > 100 µM | EKVX > 100 µM | HL-60 84.3 µM | HOP-18 > 100 µM | HOP-62 > 100 µM | HOP-92 > 100 µM | HT-29 > 100 µM | IGROV-1 86.7 µM | K562 > 100 µM | KM12 > 100 µM | LOX IMVI > 100 µM | LXFL 529 46.7 µM | M19-MEL 86.1 µM | MOLT-4 94 µM | Malme-3M > 100 µM | NCI-H226 36.6 µM | NCI-H23 > 100 µM | NCI-H460 79.6 µM | NCI-H522 > 100 µM | OVCAR-4 > 100 µM | OVCAR-5 42.8 µM | OVCAR-8 > 100 µM | RXF 393 > 100 µM | SF-268 > 100 µM | SF-295 > 100 µM | SF-539 > 100 µM | SK-MEL-28 > 100 µM | SK-MEL-2 > 100 µM | SK-MEL-5 34.4 µM | SK-OV-3 > 100 µM | SN12C > 100 µM | SNB-19 > 100 µM | SNB-78 > 100 µM | SR > 100 µM | SW-620 > 100 µM | TK-10 > 100 µM | U-251 > 100 µM | UACC-257 > 100 µM | UACC-62 41.7 µM | UO-31 > 100 µM

COc1ccc(/C=C2\N=C(c3ccccc3)N(Nc3nnc(NN4C(=O)/C(=C/c5ccc(OC)cc5)N=C4c4ccccc4)c4ccccc34)C2=O)cc1
inactive: 786-0 56.9 µM | A498 > 100 µM | A549 > 100 µM | ACHN > 100 µM | CCRF-CEM 30.7 µM | COLO 205 > 100 µM | DLD-1 42.3 µM | DMS-114 61 µM | DMS-273 41.3 µM | EKVX > 100 µM | HCT-116 94.4 µM | HL-60 30 µM | HOP-18 92.3 µM | HOP-62 62.7 µM | HOP-92 > 100 µM | HT-29 57.5 µM | IGROV-1 > 100 µM | K562 38.1 µM | KM-20L2 53.2 µM | KM12 17.2 µM | LOX IMVI 20.7 µM | LXFL 529 44.4 µM | M14 > 100 µM | M19-MEL 58.7 µM | MOLT-4 29.6 µM | NCI-H226 96.4 µM | NCI-H23 > 100 µM | NCI-H460 > 100 µM | NCI-H522 35.1 µM | OVCAR-4 53.2 µM | OVCAR-5 > 100 µM | OVCAR-8 > 100 µM | RPMI-8226 26.4 µM | RXF 393 > 100 µM | SF-268 81.8 µM | SF-295 > 100 µM | SF-539 70.6 µM | SK-MEL-28 71.1 µM | SK-MEL-5 48.5 µM | SN12C 68.5 µM | SNB-19 > 100 µM | SNB-75 68.9 µM | SNB-78 > 100 µM | SR 26.6 µM | SW-620 55.2 µM | U-251 94.8 µM | UACC-257 > 100 µM | UACC-62 70.5 µM
40.8 µM: HCT-15

Cc1ccc(C(=O)C#Cc2cnc(O)nc2O)cc1
13.8 µM: HCT-15
inactive: 786-0 13.4 µM | A498 14.7 µM | A549 18.3 µM | ACHN 15.6 µM | CAKI-1 16.9 µM | CCRF-CEM 3.44 µM | COLO 205 13 µM | DLD-1 10.3 µM | DMS-273 16.1 µM | EKVX 17.2 µM | HCC 2998 12.7 µM | HCT-116 5.94 µM | HL-60 11.5 µM | HOP-18 18.6 µM | HOP-62 29.3 µM | HOP-92 18.6 µM | HT-29 21.5 µM | IGROV-1 16.7 µM | K562 6.07 µM | KM12 14.7 µM | LOX IMVI 3.92 µM | M14 13.2 µM | M19-MEL 14.7 µM | MOLT-4 3.41 µM | Malme-3M 5.56 µM | NCI-H226 17.4 µM | NCI-H23 17.5 µM | NCI-H460 16.7 µM | OVCAR-3 13.5 µM | OVCAR-4 21.8 µM | OVCAR-5 18.9 µM | OVCAR-8 12.4 µM | RXF 393 2.99 µM | SF-268 13.1 µM | SF-295 29.2 µM | SF-539 4.09 µM | SK-MEL-28 16.9 µM | SK-MEL-2 14.4 µM | SK-MEL-5 13.6 µM | SK-OV-3 25.2 µM | SN12C 4.55 µM | SNB-19 18.2 µM | SNB-75 19.1 µM | SNB-78 11.9 µM | SW-620 8.69 µM | TK-10 18 µM | U-251 12.9 µM | UACC-257 14.2 µM | UACC-62 10.2 µM | UO-31 17.4 µM
